Among the data in ChEMBL document CHEMBL1909046, “DrugMatrix in vitro pharmacology data” are IC50 and Ki values, retold here.

Structures are written as SMILES.

For orientation: IC50 means the concentration that gives 50% inhibition. For orientation: Ki means the equilibrium dissociation constant of an inhibitor or competing ligand from its target.

One data set concerns the target Cytochrome P450 2C19 (Homo sapiens, UniProt P33261). To be noted: bti-tn-5b1-4. Note: in other assays of this panel Not Active means under 50% inhibition at 10 µM.
Another data set deals with T1, Cytochrome P450 1A2 (Homo sapiens, UniProt P05177).
T1 sequence (P05177 whole entry): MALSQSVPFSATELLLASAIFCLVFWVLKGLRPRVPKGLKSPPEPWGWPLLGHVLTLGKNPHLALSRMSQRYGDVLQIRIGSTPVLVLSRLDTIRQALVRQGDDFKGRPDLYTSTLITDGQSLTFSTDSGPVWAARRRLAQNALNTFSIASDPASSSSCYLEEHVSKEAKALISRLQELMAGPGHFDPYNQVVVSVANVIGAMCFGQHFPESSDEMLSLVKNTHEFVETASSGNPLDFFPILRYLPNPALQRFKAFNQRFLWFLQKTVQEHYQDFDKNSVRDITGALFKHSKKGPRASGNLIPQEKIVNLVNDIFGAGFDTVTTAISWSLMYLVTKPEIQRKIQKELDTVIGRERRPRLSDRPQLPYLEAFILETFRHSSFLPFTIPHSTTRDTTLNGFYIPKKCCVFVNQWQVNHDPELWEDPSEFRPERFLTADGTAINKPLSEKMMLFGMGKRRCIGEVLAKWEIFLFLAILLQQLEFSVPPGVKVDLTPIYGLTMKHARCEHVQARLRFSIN
To be noted: bti-tn-5b1-4.

The next data set deals with Cytochrome P450 2E1 (Homo sapiens, UniProt P05181). To be noted: bti-tn-5b1-4.
Chain of Cytochrome P450 2E1 (P05181 whole entry): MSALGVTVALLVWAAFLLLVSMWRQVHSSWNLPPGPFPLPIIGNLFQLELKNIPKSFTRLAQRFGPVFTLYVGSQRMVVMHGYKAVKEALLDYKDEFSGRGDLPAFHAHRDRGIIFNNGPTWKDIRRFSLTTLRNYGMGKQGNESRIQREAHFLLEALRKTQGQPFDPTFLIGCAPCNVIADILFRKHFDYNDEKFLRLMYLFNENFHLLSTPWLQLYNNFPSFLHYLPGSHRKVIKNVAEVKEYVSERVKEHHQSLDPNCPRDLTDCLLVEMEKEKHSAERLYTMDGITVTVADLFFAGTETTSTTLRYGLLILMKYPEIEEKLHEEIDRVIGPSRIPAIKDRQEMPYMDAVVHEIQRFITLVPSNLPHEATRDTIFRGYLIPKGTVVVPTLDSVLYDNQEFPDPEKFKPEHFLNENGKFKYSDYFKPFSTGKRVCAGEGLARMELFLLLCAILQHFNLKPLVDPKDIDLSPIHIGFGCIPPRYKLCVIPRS
Another data set addresses Cytochrome P450 2C9 (Homo sapiens, UniProt P11712). The following applies: bti-tn-5b1-4.
The target of data set [1] is Platelet-activating factor receptor (Homo sapiens, UniProt P25105). In words: biochemical. The format is tissue-based. The following applies: platelet. Note: in other assays of this panel Not Active means under 50% inhibition at 10 µM.
Chain of Platelet-activating factor receptor (P25105 whole entry): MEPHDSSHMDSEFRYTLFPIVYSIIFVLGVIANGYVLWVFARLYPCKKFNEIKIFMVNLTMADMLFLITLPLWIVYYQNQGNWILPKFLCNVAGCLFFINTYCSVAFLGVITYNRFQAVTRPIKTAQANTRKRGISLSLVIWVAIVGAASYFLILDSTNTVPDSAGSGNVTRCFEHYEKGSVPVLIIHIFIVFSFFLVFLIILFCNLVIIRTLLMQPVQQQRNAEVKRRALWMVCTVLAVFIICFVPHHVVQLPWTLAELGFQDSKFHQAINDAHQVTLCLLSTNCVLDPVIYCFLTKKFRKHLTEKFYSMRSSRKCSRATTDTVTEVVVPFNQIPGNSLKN
In data set [2] the target is Mitogen-activated protein kinase 1 (Homo sapiens, UniProt P28482). Put plainly: DRUGMATRIX: Protein Serine/Threonine Kinase, ERK2 enzyme inhibition (substrate: Myelin Basic Protein). Set-up: species or system Escherichia coli. To be noted: Not Active = under 50% inhibition at 10 µM.
Chain of Mitogen-activated protein kinase 1 (P28482 whole entry): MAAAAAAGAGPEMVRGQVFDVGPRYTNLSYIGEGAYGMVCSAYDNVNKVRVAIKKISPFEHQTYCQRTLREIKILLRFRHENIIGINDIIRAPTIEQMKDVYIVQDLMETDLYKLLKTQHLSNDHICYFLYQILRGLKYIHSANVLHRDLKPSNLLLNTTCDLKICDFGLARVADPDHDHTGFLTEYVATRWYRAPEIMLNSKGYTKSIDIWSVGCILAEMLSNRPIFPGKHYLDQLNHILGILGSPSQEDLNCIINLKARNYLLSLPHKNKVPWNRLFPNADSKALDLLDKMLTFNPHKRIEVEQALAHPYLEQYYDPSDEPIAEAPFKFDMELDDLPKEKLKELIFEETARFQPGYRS
Data set [3] has as its target T2, C-X-C chemokine receptor type 2 (Homo sapiens, UniProt P25025). Note: in other assays of this panel Not Active means under 50% inhibition at 10 µM.
T2 sequence (P25025 whole entry): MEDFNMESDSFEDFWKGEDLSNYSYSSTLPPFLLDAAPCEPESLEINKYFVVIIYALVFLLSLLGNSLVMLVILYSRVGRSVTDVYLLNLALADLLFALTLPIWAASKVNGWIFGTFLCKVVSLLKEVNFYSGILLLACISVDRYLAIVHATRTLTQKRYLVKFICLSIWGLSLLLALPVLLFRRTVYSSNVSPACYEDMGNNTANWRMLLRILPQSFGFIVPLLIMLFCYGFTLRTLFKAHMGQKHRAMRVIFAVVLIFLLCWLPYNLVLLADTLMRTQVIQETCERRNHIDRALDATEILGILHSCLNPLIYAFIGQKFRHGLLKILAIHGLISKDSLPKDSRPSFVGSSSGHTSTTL
The format is cell membranes, Membrane. The following applies: cho-k1.

For a further data set, the target named is Cytochrome P450 2D6 (Homo sapiens, UniProt P10635). To be noted: bti-tn-5b1-4. Note: in other assays of this panel Not Active means under 50% inhibition at 10 µM.
Chain of Cytochrome P450 2D6 (P10635 whole entry): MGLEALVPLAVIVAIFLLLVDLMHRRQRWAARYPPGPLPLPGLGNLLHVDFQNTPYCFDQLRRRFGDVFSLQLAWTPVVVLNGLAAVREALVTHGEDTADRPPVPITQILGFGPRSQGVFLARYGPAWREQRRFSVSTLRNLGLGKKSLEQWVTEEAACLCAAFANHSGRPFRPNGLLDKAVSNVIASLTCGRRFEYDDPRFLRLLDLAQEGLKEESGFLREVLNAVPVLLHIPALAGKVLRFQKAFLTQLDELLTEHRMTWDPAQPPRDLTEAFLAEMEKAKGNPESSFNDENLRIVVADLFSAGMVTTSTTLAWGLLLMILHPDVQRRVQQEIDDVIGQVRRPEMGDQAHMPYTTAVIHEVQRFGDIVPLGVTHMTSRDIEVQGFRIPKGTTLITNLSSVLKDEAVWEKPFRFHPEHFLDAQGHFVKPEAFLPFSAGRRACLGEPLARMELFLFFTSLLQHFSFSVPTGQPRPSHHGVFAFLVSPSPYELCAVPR
In data set [4] the target is Mitogen-activated protein kinase 14 (Homo sapiens, UniProt Q16539). More on the design: species or system Escherichia coli.
A further data set concerns the target T3, Calcitonin receptor (Homo sapiens, UniProt P30988). Note: in other assays of this panel Not Active means under 50% inhibition at 10 µM.
T3 sequence (P30988 whole entry): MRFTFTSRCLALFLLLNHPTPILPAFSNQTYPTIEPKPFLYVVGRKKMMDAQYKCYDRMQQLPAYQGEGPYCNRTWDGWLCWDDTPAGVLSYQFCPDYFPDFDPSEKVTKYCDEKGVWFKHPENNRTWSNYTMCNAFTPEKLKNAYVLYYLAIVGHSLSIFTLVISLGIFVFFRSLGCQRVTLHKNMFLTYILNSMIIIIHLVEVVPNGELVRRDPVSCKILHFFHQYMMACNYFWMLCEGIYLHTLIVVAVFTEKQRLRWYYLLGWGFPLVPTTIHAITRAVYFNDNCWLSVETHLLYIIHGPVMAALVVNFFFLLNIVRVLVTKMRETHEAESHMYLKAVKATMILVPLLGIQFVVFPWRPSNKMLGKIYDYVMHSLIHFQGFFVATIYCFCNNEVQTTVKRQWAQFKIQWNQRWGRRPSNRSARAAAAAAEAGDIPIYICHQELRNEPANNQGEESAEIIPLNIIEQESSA
The format is cell membranes, Membrane. The following applies: t47d.

A further data set concerns the target Melanocortin receptor 3 (Homo sapiens, UniProt P41968). The format is cell membranes, Membrane. To be noted: hek293. Note: in other assays of this panel Not Active means under 50% inhibition at 10 µM.
In another data set the target is D(3) dopamine receptor (Homo sapiens, UniProt P35462). Put plainly: DRUGMATRIX: Dopamine D3 radioligand binding (ligand: [3H] Spiperone). The format is cell membranes, CHO, Membrane.
Chain of D(3) dopamine receptor (P35462 whole entry): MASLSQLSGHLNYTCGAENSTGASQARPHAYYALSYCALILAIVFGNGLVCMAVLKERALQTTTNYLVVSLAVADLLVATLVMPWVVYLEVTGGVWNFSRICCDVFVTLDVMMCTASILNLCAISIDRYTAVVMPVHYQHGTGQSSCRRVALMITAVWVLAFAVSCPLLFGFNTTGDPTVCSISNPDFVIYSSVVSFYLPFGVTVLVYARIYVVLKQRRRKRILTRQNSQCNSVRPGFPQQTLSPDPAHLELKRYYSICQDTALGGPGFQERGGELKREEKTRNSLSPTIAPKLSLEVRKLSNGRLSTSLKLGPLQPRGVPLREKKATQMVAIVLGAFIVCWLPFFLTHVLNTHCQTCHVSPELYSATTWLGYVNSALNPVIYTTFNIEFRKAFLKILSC
Data set [5] has as its target Sigma non-opioid intracellular receptor 1 (Homo sapiens, UniProt Q99720). In words: DRUGMATRIX: Sigma1 radioligand binding (ligand: [3H] Haloperidol). The format is cell membranes, Jurkat, Membrane. The following applies: Not Active = under 50% inhibition at 10 µM; for Ki: read-out: Ki.
Data set [6] addresses Voltage-gated inwardly rectifying potassium channel KCNH2 (Homo sapiens, UniProt Q12809). The following applies: hek293.
The target in data set [7] is Sodium-dependent noradrenaline transporter (Homo sapiens, UniProt P23975). In words: DRUGMATRIX: Norepinephrine Transporter radioligand binding (ligand: [125I] RTI-55). To be noted: mdck; Not Active = under 50% inhibition at 10 µM. The format is cell membranes, MDCK, Membrane.
Data set [8] is described as follows: DRUGMATRIX: GABAA, Chloride Channel, TBOB radioligand binding (ligand: [3H] TBOB). The format is cell membranes, Rattus norvegicus, Wistar, Cerebral cortex, Membrane. To be noted: Not Active = under 50% inhibition at 10 µM.

Chain of Cytochrome P450 2C9 (P11712 whole entry): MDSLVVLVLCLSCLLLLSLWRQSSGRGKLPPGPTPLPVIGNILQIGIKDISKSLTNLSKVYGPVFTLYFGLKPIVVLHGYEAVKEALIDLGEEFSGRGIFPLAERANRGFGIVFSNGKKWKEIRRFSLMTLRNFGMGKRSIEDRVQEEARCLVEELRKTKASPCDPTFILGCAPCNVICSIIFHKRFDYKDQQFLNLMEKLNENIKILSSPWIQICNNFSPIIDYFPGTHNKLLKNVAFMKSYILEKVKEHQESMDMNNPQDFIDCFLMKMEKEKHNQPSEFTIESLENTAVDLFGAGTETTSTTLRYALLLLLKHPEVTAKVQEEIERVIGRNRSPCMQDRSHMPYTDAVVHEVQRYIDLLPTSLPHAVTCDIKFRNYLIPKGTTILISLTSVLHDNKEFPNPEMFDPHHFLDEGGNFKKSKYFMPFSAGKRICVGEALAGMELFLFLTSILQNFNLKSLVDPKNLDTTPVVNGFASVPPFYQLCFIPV
Chain of Melanocortin receptor 3 (P41968 whole entry): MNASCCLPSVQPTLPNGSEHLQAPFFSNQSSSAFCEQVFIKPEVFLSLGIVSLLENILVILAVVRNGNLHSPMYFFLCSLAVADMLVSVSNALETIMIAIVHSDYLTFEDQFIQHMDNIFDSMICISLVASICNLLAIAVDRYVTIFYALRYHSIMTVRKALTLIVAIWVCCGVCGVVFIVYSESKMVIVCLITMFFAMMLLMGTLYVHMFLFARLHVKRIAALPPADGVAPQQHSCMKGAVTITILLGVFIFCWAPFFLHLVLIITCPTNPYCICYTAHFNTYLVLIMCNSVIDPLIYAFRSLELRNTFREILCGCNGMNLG
Chain of Cytochrome P450 2C19 (P33261 whole entry): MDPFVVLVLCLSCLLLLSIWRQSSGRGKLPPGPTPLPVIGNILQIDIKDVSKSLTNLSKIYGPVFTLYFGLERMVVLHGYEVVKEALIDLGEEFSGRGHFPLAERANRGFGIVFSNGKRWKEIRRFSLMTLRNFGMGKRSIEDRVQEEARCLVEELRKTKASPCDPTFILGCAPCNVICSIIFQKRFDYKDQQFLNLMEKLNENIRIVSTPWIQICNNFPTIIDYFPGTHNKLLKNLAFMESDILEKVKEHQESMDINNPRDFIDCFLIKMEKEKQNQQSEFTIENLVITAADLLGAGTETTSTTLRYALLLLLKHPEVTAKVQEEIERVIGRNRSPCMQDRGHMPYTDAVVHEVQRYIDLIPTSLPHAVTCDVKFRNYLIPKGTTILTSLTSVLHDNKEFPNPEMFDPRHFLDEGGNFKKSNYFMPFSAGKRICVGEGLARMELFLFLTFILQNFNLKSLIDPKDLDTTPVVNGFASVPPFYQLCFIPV
Chain of Voltage-gated inwardly rectifying potassium channel KCNH2 (Q12809 whole entry): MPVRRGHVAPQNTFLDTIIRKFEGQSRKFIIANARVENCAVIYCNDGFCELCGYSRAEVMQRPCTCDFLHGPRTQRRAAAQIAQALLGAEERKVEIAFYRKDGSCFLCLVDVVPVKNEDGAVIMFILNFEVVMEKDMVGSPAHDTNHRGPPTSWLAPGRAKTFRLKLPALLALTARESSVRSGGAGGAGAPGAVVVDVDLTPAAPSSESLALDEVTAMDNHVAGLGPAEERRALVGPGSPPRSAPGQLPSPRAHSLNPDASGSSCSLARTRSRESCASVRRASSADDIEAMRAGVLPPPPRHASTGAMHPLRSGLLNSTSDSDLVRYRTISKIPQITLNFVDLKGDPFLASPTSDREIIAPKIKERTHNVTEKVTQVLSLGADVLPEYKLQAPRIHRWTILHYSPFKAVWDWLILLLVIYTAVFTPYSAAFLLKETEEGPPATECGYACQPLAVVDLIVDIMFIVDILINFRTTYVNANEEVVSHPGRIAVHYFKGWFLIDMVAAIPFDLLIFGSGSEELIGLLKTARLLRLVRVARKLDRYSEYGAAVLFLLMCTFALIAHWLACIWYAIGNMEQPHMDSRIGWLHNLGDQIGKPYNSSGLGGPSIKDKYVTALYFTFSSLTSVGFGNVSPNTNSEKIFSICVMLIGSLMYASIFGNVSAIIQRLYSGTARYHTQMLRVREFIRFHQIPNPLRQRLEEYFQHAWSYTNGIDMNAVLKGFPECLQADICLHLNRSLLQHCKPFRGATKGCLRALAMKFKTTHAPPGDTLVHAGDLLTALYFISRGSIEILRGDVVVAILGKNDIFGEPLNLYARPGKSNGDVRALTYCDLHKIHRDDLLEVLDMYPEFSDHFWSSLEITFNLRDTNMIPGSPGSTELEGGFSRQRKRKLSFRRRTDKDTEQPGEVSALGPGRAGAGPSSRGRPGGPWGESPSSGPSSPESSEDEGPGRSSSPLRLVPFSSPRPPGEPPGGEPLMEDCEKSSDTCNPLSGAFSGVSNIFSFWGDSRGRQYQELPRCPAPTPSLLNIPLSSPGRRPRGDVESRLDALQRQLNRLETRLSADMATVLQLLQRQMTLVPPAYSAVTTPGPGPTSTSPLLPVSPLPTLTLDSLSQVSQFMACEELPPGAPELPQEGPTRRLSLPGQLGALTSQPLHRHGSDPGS
Chain of Sigma non-opioid intracellular receptor 1 (Q99720 whole entry): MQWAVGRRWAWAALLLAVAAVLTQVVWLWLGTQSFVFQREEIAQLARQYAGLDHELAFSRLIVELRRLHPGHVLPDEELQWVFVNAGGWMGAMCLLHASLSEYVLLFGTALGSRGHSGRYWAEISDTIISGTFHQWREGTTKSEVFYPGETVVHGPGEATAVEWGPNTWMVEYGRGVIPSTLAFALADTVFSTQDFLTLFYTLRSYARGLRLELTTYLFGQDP

In the case of `COc1ccc(CCN2CCC(Nc3nc4ccccc4n3Cc3ccc(F)cc3)CC2)cc1` [ASTEMIZOLE], the half-maximal inhibitory concentration (IC50) entry (on Cytochrome P450 2C19; against Cytochrome P450 1A2; on Cytochrome P450 2E1; against Cytochrome P450 2C9; in [1]; in data set [2]) was “Not Active” in each case. For the same compound, the IC50 result (in [3]; against Cytochrome P450 2D6; in data set [4]; on Calcitonin receptor) was “Not Active” each time. Besides, the Ki result on Cytochrome P450 2C19, at Cytochrome P450 1A2, on Cytochrome P450 2E1, at Cytochrome P450 2C9 and on Cytochrome P450 2D6 was “Not Active” throughout.

In the case of `CN(C)CCCN1c2ccccc2CCc2ccc(Cl)cc21` [CLOMIPRAMINE], the IC50 result against Melanocortin receptor 3 is “Not Active”; against Cytochrome P450 2C19 it was “Not Active”; against Cytochrome P450 1A2, “Not Active”; on Cytochrome P450 2E1, “Not Active”; against Cytochrome P450 2C9, “Not Active”; on D(3) dopamine receptor (read-out: IC50), 139 nM. The IC50 in data set [5] (read-out: IC50) is 1360 nM; in data set [1] it was “Not Active”; in [2] it was “Not Active”; in [6], “Not Active”; in data set [3], “Not Active”; in [4], “Not Active”. Moreover, the IC50 entry at Calcitonin receptor is recorded as “Not Active”. Further, the Ki entry on Cytochrome P450 2C19 is “Not Active”; on Cytochrome P450 1A2, “Not Active”; on Cytochrome P450 2E1, “Not Active”; on Cytochrome P450 2C9, “Not Active”; at D(3) dopamine receptor (read-out: Ki), 47 nM; in data set [5] it was 572 nM. In addition, the Ki entry in data set [6] is reported as “Not Active”.

In the case of `CN[C@@H]1[C@@H](O)[C@@H](O[C@@H]2[C@@H](O)[C@H](O[C@H]3OC(CN)=CC[C@H]3N)[C@@H](N)C[C@H]2N)OC[C@]1(C)O` [SISOMICIN], the IC50 entry (in data set [7]; against Melanocortin receptor 3; at D(3) dopamine receptor (cho); in data set [5] (jurkat); in [1]; in data set [8]) was “Not Active” throughout. For the same compound, the IC50 result (in data set [2]; in data set [6]; in [3]; in [4]; at Calcitonin receptor) was “Not Active” in each case. Besides, the inhibition constant Ki entry in data set [8] and in [6] was “Not Active” each time.

Consider `C[C@]12Cc3c[nH]nc3C[C@@H]1CC[C@@H]1[C@@H]2CC[C@@]2(C)[C@H]1CC[C@]2(C)O` [STANOZOLOL], for which the IC50 result (in data set [7]; on Melanocortin receptor 3; against Cytochrome P450 1A2; at Cytochrome P450 2E1; on D(3) dopamine receptor (cho); in data set [5] (jurkat)) was “Not Active” in each case. Also, the IC50 result in data set [1], in data set [8], in data set [2], in [6], in data set [3] and in data set [4] was “Not Active” each time. The IC50 entry on Calcitonin receptor is on record as “Not Active”. In addition, the Ki result (on Cytochrome P450 1A2; on Cytochrome P450 2E1; in data set [8]; in data set [6]) was “Not Active” throughout.

Turning to `CSc1ccc2c(c1)N(CCC1CCCCN1C)c1ccccc1S2` (centres undefined) [THIORIDAZINE], the IC50 result against Melanocortin receptor 3 was “Not Active”; against Cytochrome P450 2E1, “Not Active”; at Cytochrome P450 2C9 it was “Not Active”; in data set [5] (read-out: IC50), 363 nM; in [1] it was “Not Active”; in [2] it was “Not Active”. In addition, the IC50 result (in data set [3]; in [4]; on Calcitonin receptor) was “Not Active” in each case. Besides, the inhibition constant Ki result on Cytochrome P450 2E1 was “Not Active”; on Cytochrome P450 2C9, “Not Active”; in data set [5], 153 nM.

With `COc1cccc(C2(O)CCCCC2CN(C)C)c1` (centres undefined) [TRAMADOL], the IC50 entry against Melanocortin receptor 3, against Cytochrome P450 2C19, at Cytochrome P450 1A2, on Cytochrome P450 2E1, on Cytochrome P450 2C9 and on D(3) dopamine receptor (cho) was “Not Active” each time. The IC50 entry (in [5] (jurkat); in data set [1]; in [2]; in [6]; in [3]; on Cytochrome P450 2D6) was “Not Active” throughout. Also, the concentration for half-maximal inhibition (IC50) entry (in data set [4]; at Calcitonin receptor) was “Not Active” each time. The Ki entry (at Cytochrome P450 2C19; at Cytochrome P450 1A2; on Cytochrome P450 2E1; at Cytochrome P450 2C9; in data set [6]; at Cytochrome P450 2D6) was “Not Active” in each case.

For `COc1ccc(C(CN(C)C)C2(O)CCCCC2)cc1` (centres undefined) [VENLAFAXINE], the IC50 entry at Melanocortin receptor 3, on Cytochrome P450 2C19, at Cytochrome P450 1A2, against Cytochrome P450 2E1, against Cytochrome P450 2C9 and at D(3) dopamine receptor (cho) was “Not Active” throughout. Also, the IC50 result in data set [5] (jurkat), in data set [1], in [8], in [2], in data set [6] and in data set [3] was “Not Active” each time. In addition, the IC50 result (on Cytochrome P450 2D6; in data set [4]; on Calcitonin receptor) was “Not Active” throughout. Besides, the Ki result (at Cytochrome P450 2C19; on Cytochrome P450 1A2; at Cytochrome P450 2E1; on Cytochrome P450 2C9; in data set [8]; in data set [6]) was “Not Active” throughout. The Ki result at Cytochrome P450 2D6 is “Not Active”.
